{"source": "paper PMC3217308", "about": "(Journal of Agricultural and Food Chemistry, 2011)", "target": "T1, human sweet taste receptor, hT1R2/hT1R3 (Homo sapiens, UniProt Q7RTX0+Q8TE23)", "T1 sequence (Q8TE23 20-839)": "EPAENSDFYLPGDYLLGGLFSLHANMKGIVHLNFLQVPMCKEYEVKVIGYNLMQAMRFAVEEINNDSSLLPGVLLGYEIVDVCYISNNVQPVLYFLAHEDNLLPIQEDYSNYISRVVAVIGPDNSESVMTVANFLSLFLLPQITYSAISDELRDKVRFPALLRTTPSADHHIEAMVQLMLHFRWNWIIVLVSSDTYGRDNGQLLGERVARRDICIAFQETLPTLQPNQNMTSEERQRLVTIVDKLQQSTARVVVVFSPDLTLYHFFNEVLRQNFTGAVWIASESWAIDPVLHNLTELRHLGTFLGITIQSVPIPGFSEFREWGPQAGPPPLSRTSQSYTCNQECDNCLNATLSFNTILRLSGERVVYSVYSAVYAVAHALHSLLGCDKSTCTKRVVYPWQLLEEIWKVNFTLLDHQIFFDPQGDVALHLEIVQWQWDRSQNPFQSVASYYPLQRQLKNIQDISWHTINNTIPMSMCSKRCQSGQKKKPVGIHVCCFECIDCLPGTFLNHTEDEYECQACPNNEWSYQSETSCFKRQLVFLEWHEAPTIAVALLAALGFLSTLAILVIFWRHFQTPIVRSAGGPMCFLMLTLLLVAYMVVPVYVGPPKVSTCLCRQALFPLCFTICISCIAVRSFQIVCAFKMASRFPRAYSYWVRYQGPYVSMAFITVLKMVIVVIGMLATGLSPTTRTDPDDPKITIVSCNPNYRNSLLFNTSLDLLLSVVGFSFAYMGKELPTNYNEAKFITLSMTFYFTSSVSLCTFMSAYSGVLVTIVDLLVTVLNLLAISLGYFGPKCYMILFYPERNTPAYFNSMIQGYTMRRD", "T1 sequence (Q7RTX0 21-852)": "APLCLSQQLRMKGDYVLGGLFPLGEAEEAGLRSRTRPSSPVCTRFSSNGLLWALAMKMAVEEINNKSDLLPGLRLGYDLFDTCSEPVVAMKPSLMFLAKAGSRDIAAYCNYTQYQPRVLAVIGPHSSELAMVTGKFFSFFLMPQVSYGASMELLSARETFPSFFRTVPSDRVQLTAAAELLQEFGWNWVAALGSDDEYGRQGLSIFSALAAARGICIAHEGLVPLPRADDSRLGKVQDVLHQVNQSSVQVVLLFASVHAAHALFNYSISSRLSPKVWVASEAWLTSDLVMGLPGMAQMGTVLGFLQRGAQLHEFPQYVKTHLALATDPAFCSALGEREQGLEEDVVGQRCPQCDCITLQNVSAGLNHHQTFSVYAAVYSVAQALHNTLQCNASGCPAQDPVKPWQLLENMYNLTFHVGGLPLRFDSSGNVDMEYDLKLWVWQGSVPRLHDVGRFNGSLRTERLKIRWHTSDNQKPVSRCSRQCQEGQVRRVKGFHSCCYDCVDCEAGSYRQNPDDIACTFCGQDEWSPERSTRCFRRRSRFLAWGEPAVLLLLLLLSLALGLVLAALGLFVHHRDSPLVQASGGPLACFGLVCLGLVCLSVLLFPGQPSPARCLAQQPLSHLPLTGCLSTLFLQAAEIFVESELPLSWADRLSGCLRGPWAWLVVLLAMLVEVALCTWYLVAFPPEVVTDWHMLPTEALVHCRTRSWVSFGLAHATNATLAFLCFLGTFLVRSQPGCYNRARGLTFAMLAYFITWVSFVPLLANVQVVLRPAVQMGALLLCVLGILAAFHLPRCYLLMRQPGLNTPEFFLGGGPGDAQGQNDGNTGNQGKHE", "assay": "Luminescence assay", "assay_type": "cell-based", "conditions": "aequorin assay, 10–40 nM BCECF", "data": [{"substance": "2′,7′-bis-(2-carboxyethyl)-5-(and-6)-carboxyfluorescein [BCECF]", "values": [{"measurement": "nonspecific signals", "result": "did not produce nonspecific signals"}]}]}
